Test results from patent US8852240B2, “Methods and compositions for fostering and preserving bone growth” (Kieran Murphy, LLC, priority 2004, dated 2014).
Entries after “also recorded” stand apart in the source; their conditions may differ.

Experiments:
[1] = tested on: marrow cavity of rat femur; experiment: Calcein labeling of mid-shaft sections of rat femur after bone marrow ablation (BMX); type: in vivo; conditions: for protection of bone formed in the marrow cavity (calcein fluorescent signal): BMX + PTH 21 days, then anti-resorptive agent for the next 63 days (days 22-84), FIG. 7A
Method: FIG. 1A is a section of the mid-shaft of a rat femur following, respectively, 21 and 84 days of treatment. The groups include: (a) control—no bone marrow ablation (“BMX”) or anabolic agent, (b) BMX—bone marrow ablation alone; and (c) BMX+PTH−bone marrow ablation plus treatment for either 21 or 84 days with PTH 1-34 NH2. In addition, the rats were injected with calcein, a fluorescent dye, on 9, 8, 2 and 1 day prior to sacrificing the animals. Calcein becomes incorporated into bone and serves as a measure of bone growth and mineralization;
FIG. 6A illustrates the degree of persistent bone growth achieved after 84 days with the administration of a biocompatible material, in this instance Cementek (Cementek LV, Non-stoichiometric hydroxyapatite prepared from the reaction between the acid and base calcium phosphates in the presence of an aqueous solution. Teknimid, 65500 VIV en Biggore, France) or Pepgen-15 (a high purity anorganic bovine graft material, radiopaque, peptide-enhanced to mimic autogeneous bone. Dentsply Friadent CeraMed Lakewood, Colo.). All samples were taken from femurs which had BMX performed on them. The groups included: BMX followed by 84 days anabolic agent or PBS (buffer) presented in the first row or BMX followed by insertion of a slurry of biocompatible matrix (Cementek or Pepgen-15) with our without concomitant PTH treatment for 84 days;
FIGS. 7A and 7B illustrate the effect attributable to administration of the anti-resorption agent, Alendronate, in preserving bony tissue formed according to the method of the invention. The following treatment modalities are included: (a) BMX+PTH 1-34 NH2 for 21 days+PBS (buffer) during days 22-84; (b) BMX+PTH 1-34 NH2 for 21 days+calcitonin during days 22-84; (c) BMX+PTH 1-34 NH2 for 21 days+Alendronate during days 22-84; and (d) BMX+PTH 1-34 NH2 during days 1-84.

[2] = tested on: femoral shaft marrow cavity; experiment: Micro-CT analysis of the femoral shaft marrow cavity after bone marrow ablation (BMX); type: in vivo, rat; conditions: for protection of bone formed in the marrow cavity (Micro-CT): BMX + PTH 21 days, then anti-resorptive drug for an additional 63 days, FIG. 7B
Description: FIG. 1B depicts the results from the same groups of animals using the imaging technique known as Micro-CT. This technique provides a high resolution analysis of the femoral shaft marrow cavity from the Control, BMX, and the BMX+PTH 1-34 NH2 of rats treated with PBS (buffer) or PTH for 21 or 84 days, respectively;
FIG. 6B depicts the results obtained from the same groups of animals reported in FIG. 6A using the Micro-CT imaging technique. This imaging technique provides a high resolution analysis of the femoral shaft marrow cavity from the BMX+PBS or PBX+PTH treatments, compared with femurs that had biocompatible materials (Cementek or Pepgen-15) injected into the bone marrow cavity following the step (e.g., ablation) resulting in the inducement of increased osteoblast activity; and
FIG. 7B depicts the results from the same groups of animals reported in FIG. 7A using the Micro-CT imaging technique, which provides a high resolution analysis of the femoral shaft marrow cavity.

Row | Compound | protection of bone formed in the marrow cavity (calcein fluorescent signal) [1] | protection of bone formed in the marrow cavity (calcein fluorescent signal) ([1]; listed as Alendronate) | protection of bone formed in the marrow cavity (Micro-CT) [2] | bone formation in femur mid-shaft (calcein) ([1]; BMX + PTH for 21 days, day 21, FIG. 1A) | bone / fluorescent label remaining in ablated marrow cavity (calcein) ([1]; BMX + PTH for 84 days, day 84, FIG. 1A / 7A) | bone formation in femurs receiving a biocompatible matrix material (calcein) ([1]; BMX + biocompatible matrix + PTH 84 days versus buffer (PBS), FIG. 6A) | bone in femoral shaft marrow cavity (Micro-CT) ([2]; BMX + PTH 1-34 NH2 + biocompatible material versus biocompatible material alone, 84 days, FIG. 6B) | newly formed bone in the marrow cavity (Micro-CT) ([2]; BMX + PTH for 21 days, day 21, FIG. 1B) | bone in marrow cavity of femur mid-shaft/diaphysis (Micro-CT) ([2]; BMX + PTH for 84 days, day 84, FIG. 1B / 7B)
1 | NCCCC(O)(P(=O)(O)O)P(=O)(O)O [alendronate] | protect the bone | greater protective effect | to a greater extent |  |  |  |  |  | 
2 | calcitonin | protected; also recorded: protect the bone |  | protects the bone |  |  |  |  |  | 
3 | PTH 1-34 NH2 |  |  |  | leads to additional bone formation | resorption of a substantial portion of the bone that was present at day 21; also recorded: contains a minimum amount of fluorescent label; also recorded: no longer contains fluorescent labels | markedly greater than for buffer (PBS) alone | better results than the use of biocompatible material alone | further augmented | no longer contains substantial amounts of bone; also recorded: no longer contains radio-dense bone
